US8481592B2, “Uses of sesquiterpene derivatives” (Kwang Dong Pharm Co., Ltd., priority 2008, dated 2013)
Marks after values point to notes of the source that are not given here.

Key:
[1] = tested on: C. elegans; assay: Anti-obesity effect (fat content by Nile red staining) in C. elegans; format: in vivo, Caenorhabditis elegans; parameters: key to Fat content: A low fat content was indicated by +1; a high fat content was assigned with +4; settings: Nile red staining
Description: Using a dissecting microscope (×50 magnification), C. elegans at the 4th stage (L4, the imaginal stage) was transferred to 3 ml of a cholesterol-supplemented S-medium (containing NaCl, K2HPO4, KH2PO4, cholesterol, citrate, trace metals, CaCl2 and MgSO4), and 100 μl of E. coli OP50 (OD600=0.2) liquid-cultured overnight before 1 day of experiment was added thereto. The Pterocarpus indicus fraction sample was added to the liquid media containing C. elegans, followed by rotary culture in a dark room at 16° C. and 100 rpm. The water-insoluble sample was dissolved in DMSO and added to the culture media. The final concentration of DMSO was adjusted below 1%. […] 24 hours after the sample was added to C. elegans, 30 μl of a Nile red dye at a concentration of 10 μg/ml was added (final concentration of Nile red was adjusted to 100 ng/ml) to the media, followed by continuous rotary culture for 2 days.
In order to arrest the locomotory movement of C. elegan, 20 μl of 0.3% NaN3 was dropped on a slide glass to which 100 μl of C. elegans cultured in the presence of Nile red for 2 days was added. Under a fluorescence microscope, adipocytes of C. elegans emitting red fluorescence in a dark room were micrographed and compared with the control group to thereby determine the amount of fat. A low fat content was indicated by +1, whereas a high fat content was assigned with +4. Adult (L4 stage) C. elegans immediately prior to egg-laying were used in this Example. Therefore, the eggs were hatched after sample treatment and most of adult C. elegans were killed at 3 day post-treatment. A fat content was examined in C. elegans which had newly hatched and grown.

[2] = Biochemical index of blood and liver tissue in mice fed high fat diet containing sesquiterpene compound; format: in vivo, mouse
Description: The composition of diet is described in the following Table 5. […] After experimental animals were fasted for above 12 hrs, they were anesthetized with diethylether, and their blood, liver and visceral fat tissues (epididymal fat, perirenal fat, mesenteric fat and abdominal fat) were collected. And then, they were washed with 0.1 M phosphate-buffered saline (pH 7.4), and their weights were measured. […] Concentration of total Plasma cholesterol, triglyceride and glucose was measured twice according to commercially available measurement kit (Bio Clinical system), respectively. Insulin concentration was measured by ELISA using mouse insulin kit (Shibayaki, Japan). […] The homogenate was mixed with 5 ml of chloroform:methanol solution (2:1, v/v), and centrifuged at 1,000×g for 10 min to separate lower phase. […] Three ml of chloroform:methanol:0.05% CaCl2 solution (3:48:47, v/v/v) were added to the resulting lower phase, and thoroughly mixed for 1 min. The mixture was centrifuged at 1,000×g for 10 min. The final lower phase was completely dried on nitrogen gas, and the dried lipid was dissolved in 1 ml of methanol to use analysis of lipid component. Triglyceride concentration in lipid extracts from liver tissues was measured according to commercially available measurement kit (Bio Clinical system) equal to that used in analysis of plasma.

[3] = Physical characteristics of the compounds (solubility, stability); settings: easily dissolved in organic solvent having lower polarity than ethanol, but not water
[4] = Body weight gain and total visceral fat weight in mice fed high fat diet containing sesquiterpene compound; format: in vivo, mouse; settings: HFD with 0.2% compound in diet, C57BL mice, 8 weeks
Excerpt: Obesity-inducible diet used in the present experiment was high fat diet (HFD: 40% fat calorie, 17 g Lard+3% maize oil/100 g diet) developed by the present inventors and the composition of diet containing sesquiterpene compounds was equal to that of HFD but each 8 sesquiterpene compounds with a concentration of 0.2% was included in diet [cedryl acetate-containing diet, (−)-α-cedrene-containing diet, (+)-β-cedrene-containing diet, cedrene epoxide-containing diet, methyl cedryl ether-containing diet, methyl cedryl ketone-containing diet, cedrenol-containing diet and (+)-cedrol-containing diet]. The composition of diet is described in the following Table 5.
6-old-week C57BL/63 male mice were adapted to laboratory environment during one week and divided into HFD control and 8 test groups according to randommized block design. […] Diet was supplied with water at 10-11 o'clock every morning, and intake amount of diet and body weight was measured every day and once of three days, respectively. The body weight was measure at 2 hrs after removing feed bin to block sudden change of body weight according to feed intake, and feed efficiency was calculated by dividing body weight gain by amount of total intake amount of diet during total experimental period which is from initial day supplying experimental diet to sacrificed day. After experimental animals were fasted for above 12 hrs, they were anesthetized with diethylether, and their blood, liver and visceral fat tissues (epididymal fat, perirenal fat, mesenteric fat and abdominal fat) were collected. And then, they were washed with 0.1 M phosphate-buffered saline (pH 7.4), and their weights were measured. Blood taken from abdominal aorta was centrifuged at 1,000×g for 15 min to separate plasma.

[5] = HFD with compound in diet, 8 weeks, fasted

Q: With `CC(=O)O[C@]1(C)CC[C@@]23C[C@@H]1C(C)(C)[C@@H]2CC[C@H]3C` [Cedryl acetate, cedryl acetate] as the compound, how does the Fat content ([1]; sample concentration 1 μg/ml) read?
A: +4

Q: And the Fat content ([1]; sample concentration 10 μg/ml)?
A: +3

Q: What about the Fat content ([1]; sample concentration 100 μg/ml) of the same compound?
A: +2

Q: And the “blood insulin concentration reduced compared to HFD” value ([2]; 8-week)?
A: 49%

Q: What about the “fasting glucose reduced compared to HFD” value ([2]; 8-week) of the same compound?
A: 54%

Q: And the “insulin resistance index reduced compared to HFD” value ([2]; 8-week)?
A: 73%

Q: What about the “Liver Triglyceride” value ([2]; HFD with compound in diet, 8 weeks) of the same compound?
A: 23.8 ± 2.33 µmol/g

Q: And the “IRI (insulin resistance index)” value [2, 5]?
A: 0.44 ± 0.06* 10^−3 pmol insulin × mmol glucose × L^−2

Q: And the “Plasma Glucose” value [2, 5]?
A: 4.67 ± 0.40 mmol/L

Q: What about the “Plasma Insulin” value [2, 5] of the same compound?
A: 0.49 ± 0.07 ng/mL

Q: What about the “Plasma Total cholesterol” value [2, 5] of the same compound?
A: 2.53 ± 0.10 mmol/L

Q: And the “Plasma Triglyceride” value [2, 5]?
A: 1.12 ± 0.06 mmol/L

Q: And the “Plasma triglyceride concentration reduced compared to HFD” value ([2]; plasma, 8-week)?
A: 30%

Q: And the Solubility [3]?
A: Fat soluble

Q: What about the Body weight gain [4] of the same compound?
A: 8.54 ± 0.84 g/8 weeks

Q: What about the “total visceral fat weight” value ([4]; epididymal, perirenal, mesenteric and abdominal fat) of the same compound?
A: 46.4 ± 3.12 mg/g body weight
